{
  "source": "patent US11986446B2",
  "about": "“Method of administration of gamma hydroxybutyrate with monocarboxylate transporters” (priority 2013, dated 2024)",
  "key": {"[1]": {"assay": "Ibuprofen combined with Xyrem, pharmacokinetics of GHB"}, "[2]": {"details": "healthy volunteers; 12.5, 25, and 50 mg/kg; cited from earlier work"}, "[3]": {"assay": "Phase 1 crossover study of Xyrem with and without divalproex sodium, pharmacokinetics of GHB", "format": "in vivo, human", "excerpt": "This study is designed to compare the pharmacokinetic (PK) and pharmacodynamic (PD) endpoints of Xyrem® with and without co-administration of divalproex sodium extended-release tablets. The crossover design allows within-subject comparisons of the PK and PD of Xyrem® dosed alone and in combination with divalproex sodium extended-release tablets. PD parameters include the following: Cognitive Drug Research (CDR) System tasks: Karolinska Sleepiness Scale (KSS), Simple Reaction Time (SRT), Digit Vigilance (DV), Choice Reaction Time (CRT), Tracking and Numeric Working Memory (NWM).\nThis was a Phase 1, randomized, double-blind, placebo-controlled, five-period, crossover study in healthy male subjects. The study was conducted in approximately 24 healthy subjects to ensure completion of 16 subjects. Following Screening and Baseline procedures, eligible subjects were randomized to receive Xyrem® and Xyrem® placebo in a crossover fashion in Periods 1 and 2; were dosed with divalproex sodium extended-release tablets for 10 consecutive days in Period 3; and while continuing to take divalproex sodium extended-release tablets, were randomized to receive Xyrem® and Xyrem® placebo in a crossover fashion in Periods 4 and 5 (Table 1).\nSubjects were randomized to receive two 3 g doses of Xyrem® or Xyrem® placebo 4 hours apart in a crossover fashion at approximately 9 AM (first dose) and 1 PM (second dose) on Days 1 and 3. PK and PD parameters were evaluated during the 24 hours postdose.\nBlood samples (4 mL) for sodium oxybate concentrations were collected at predose and at specified time-points up to 12 hours after the first dose of Xyrem® or Xyrem® placebo on Days 1 and 3. A PD Battery including the Karolinska Sleepiness Scale, Simple Reaction Time task, Digit Vigilance task, Choice Reaction Time task, Tracking task, and Numeric Working Memory task was administered at planned timepoints up to X hours after first dose (X hours after second dose), and safety were monitored at specified timepoints on Days 1 and 3 as well as throughout the periods.\nAll subjects received divalproex sodium extended-release tablets 1250 mg at approximately 8 AM on Days 5 through 14. Blood samples (4 mL) for valproic acid concentrations were collected before the divalproex sodium dose (to determine trough concentration for assessment of steady state) on Days 13 and 14. Safety was monitored at specified timepoints as well as throughout the period.\nSubjects continued taking 1250 mg divalproex sodium extended-release tablets at approximately 8 AM on Days 15 through 18. Subjects were also randomized to receive two 3 g doses of Xyrem® or Xyrem® placebo in a crossover fashion at approximately 9 am (first dose) and 1 pm (second dose) on Days 15 and 18. The first dose of Xyrem® or Xyrem® placebo was taken approximately 1 hour after dosing with divalproex sodium extended-release tablets, and the second dose of Xyrem® or Xyrem® placebo was taken 4 hours after the first Xyrem®/Xyrem® placebo dose.\nBlood samples (4 mL) to measure plasma sodium oxybate concentrations were collected at pre Xyrem®/Xyrem® placebo dose and at specified timepoints after the first Xyrem® or Xyrem® placebo dose on Days 15 and 18. Blood samples (4 mL) to measure plasma valproic acid concentrations were collected pre divalproex sodium dose and at specified timepoints after the dose of divalproex sodium extended-release tablets on Day 15 and 18. […]"}, "healthy male subjects": {"test_system": "healthy male subjects", "format": "in vivo, human"}, "[4]": {"details": "alcohol dependent patients, oral administration; cited from earlier work"}, "healthy adults": {"test_system": "healthy adults", "assay": "Ibuprofen combined with Xyrem, PD (KSS and CDR System tasks)", "format": "in vivo, human", "experimental": "The effects of Ibuprofen were evaluated when combined with Xyrem® in a manner similar to the above. […] However, it was observed that renal excretion of Xyrem® doubled upon concomitant administration of Ibuprofen and Xyrem®."}, "[5]": {"details": "GHB and divalproate concomitantly administered, statistically significant"}, "[6]": {"details": "GHB co-administered with valproate, attributed to GHB dehydrogenase inhibition"}},
  "note": "Where two headings read alike, the source gives them in different places.",
  "data": [
    {"compound": "O=C(O)CCCO", "note": "[Xyrem®, sodium oxybate]", "values": [
      {"measurement": "plasma levels, lower", "setting": "[1]; GHB concomitantly administered with ibuprofen, statistically significant", "value": "~5", "unit": "%"},
      {"measurement": "renal excretion of GHB", "setting": "[1]; concomitant administration of ibuprofen", "value": "doubled"},
      {"measurement": "oral absorption and elimination processes, dose dependency", "setting": "[2]", "value": "capacity-limited though the degree of dose dependency was moderate"},
      {"measurement": "renal clearance, increased", "setting": "[3]; [5]", "value": 30, "unit": "%"},
      {"measurement": "systemic exposure (plasma AUC), increased", "setting": "[3]; [5]", "value": 26, "unit": "%"},
      {"measurement": "AUC, increase", "setting": "[3]; [6]", "value": "about 15%"},
      {"measurement": "Cmax, increase", "setting": "[3]; [6]", "value": "about 15%"},
      {"measurement": "renal excretion of GHB, increase", "setting": "[3]; upon co-administration of valproate", "value": 30, "unit": "%"},
      {"measurement": "PD effects", "setting": "healthy subjects; GHB and diclofenac concomitantly administered", "value": "significantly reduced"},
      {"measurement": "Digit Vigilance Accuracy, change from baseline", "setting": "healthy subjects; Xyrem co-dosed with diclofenac vs Xyrem alone, at 1 and 2.5 h", "value": "significantly less impairment than Xyrem® alone"},
      {"measurement": "Power of Attention, change from baseline", "setting": "healthy subjects; Xyrem co-dosed with diclofenac vs Xyrem alone, at 1 and 4.5 h", "value": "narrowly missed significance"},
      {"measurement": "Power of Attention, change from baseline", "setting": "healthy subjects; Xyrem co-dosed with diclofenac vs Xyrem alone, at 0.5 h", "value": "significantly less impairment than Xyrem® alone"},
      {"measurement": "Power of Attention, change from baseline", "setting": "healthy subjects; Xyrem co-dosed with diclofenac vs diclofenac alone, 6.5 h and 8 h", "value": "impairments at two timepoints compared to diclofenac alone which at 6.5 h was significant and a trend at 8 h"},
      {"measurement": "Choice Reaction Time Mean, impairments", "setting": "healthy subjects; in vivo", "value": "significantly smaller than with Xyrem® alone"},
      {"measurement": "Digit Vigilance Mean Reaction Time, change from baseline", "setting": "healthy subjects; in vivo", "value": "significantly less impairment than Xyrem® alone"},
      {"measurement": "PD effects", "setting": "healthy male subjects; GHB and divalproate concomitantly administered", "value": "more pronounced effects with concomitant administration"},
      {"measurement": "sleepiness, attention, working memory and tracking task performance", "setting": "healthy male subjects; Xyrem alone, two 3 g doses, healthy volunteers", "value": "induces sleepiness and produces impairments to attention, working memory and performance on a tracking task"},
      {"measurement": "Tracking Distance from Target, change from baseline", "setting": "healthy male subjects; Xyrem and divalproex sodium together (A+C) vs Xyrem alone (A), at 4 and 8 hours", "value": "statistically significant difference by a slightly delayed recovery for the combination"},
      {"measurement": "Numeric Working Memory Sensitivity Index, change from baseline", "setting": "healthy male subjects; Xyrem and divalproex sodium together (A+C) vs Xyrem alone (A), at 4.5 through 8 hours", "value": "showed a difference"},
      {"measurement": "Continuity of Attention, change from baseline", "setting": "healthy male subjects; Xyrem and divalproex sodium together (A+C) vs Xyrem alone (A), at 4 hours and 8 hours", "value": "slightly delayed recovery for the combination"},
      {"measurement": "Digit Vigilance Accuracy, change from baseline", "setting": "healthy male subjects; Xyrem and divalproex sodium together vs Xyrem alone, at 2.5 and 4 hours", "value": "statistically reliably different greater impairment to Xyrem® alone"},
      {"measurement": "impairments over time", "setting": "healthy male subjects; Xyrem dosed with divalproex sodium vs divalproex sodium alone (compared with Xyrem vs its placebo)", "value": "more consistent statistically significant impairments over time were seen with the combination"},
      {"measurement": "impairments to cognitive function and sleepiness", "setting": "healthy male subjects; co-administration of Xyrem and divalproex vs Xyrem alone", "value": "greater impairments to cognitive function and sleepiness than were seen with Xyrem® alone"},
      {"measurement": "Numeric Working Memory Mean Reaction Time, change from baseline", "setting": "healthy male subjects; in vivo", "value": "statistically significant differences at 2.5, 5 and 8 hours when the combination produced greater impairment"},
      {"measurement": "Simple Reaction Time Mean, change from baseline", "setting": "healthy male subjects; in vivo", "value": "statistically reliably greater impairments than Xyrem® alone"},
      {"measurement": "absorption into and elimination from the systemic circulation", "setting": "[4]", "value": "fast processes"},
      {"measurement": "unchanged drug recovered in the urine", "setting": "[4]", "value": "Virtually no unchanged drug could be recovered in the urine"}
    ]},
    {"compound": "CCCC(CCC)C(=O)O", "note": "[Divalproex sodium, 2-propylvaleric acid]", "values": [
      {"measurement": "effects on cognitive function or sleepiness", "setting": "healthy male subjects; in vivo", "value": "no consistent or notable effects on cognitive function or sleepiness"}
    ]},
    {"compound": "CC(C)Cc1ccc(C(C)C(=O)O)cc1", "note": "(centres unmarked) [Ibuprofen, iso-butyl-propanoic-phenolic acid]", "values": [
      {"measurement": "Karolinska Sleepiness Scale, Simple Reaction Time, Digit Vigilance, Choice Reaction Time, Tracking and Numeric Working Memory", "setting": "healthy adults", "value": "No differences were seen"}
    ]},
    {"compound": "O=C(O)Cc1ccccc1Nc1c(Cl)cccc1Cl", "note": "[diclofenac, 2-(2,6-dichloranilino) phenylacetic acid]", "values": [
      {"measurement": "effect of diclofenac on the effects of Xyrem on Power of Attention, simple and choice reaction time", "setting": "healthy subjects; co-dosed with Xyrem, during the hour after the first dose of Xyrem", "value": "significantly reduced the effects of the compound"},
      {"measurement": "effect on sleepiness or cognitive function", "setting": "healthy subjects; diclofenac alone (50 mg qid + Xyrem placebo)", "value": "no effect on sleepiness or cognitive function"},
      {"measurement": "interaction on feelings of sleepiness", "setting": "healthy subjects; diclofenac co-dosed with Xyrem", "value": "no interaction"},
      {"measurement": "protective effect on subjects ratings of alertness", "setting": "healthy subjects; diclofenac co-dosed with Xyrem", "value": "not seen"},
      {"measurement": "impairments (interaction) over the hour following the first dose of Xyrem", "setting": "healthy subjects; diclofenac co-dosed with Xyrem vs Xyrem alone", "value": "impairments being notably smaller"},
      {"measurement": "greater cognitive impairment or sleepiness on any measure", "setting": "healthy subjects; in vivo", "value": "no evidence on any measure of greater cognitive impairment or sleepiness"}
    ]}
  ]
}
